Converted amounts (≈) assume the structure as drawn.
Legend:
rice = experiment: Treatment of soil under submerged condition, post-emergence (Test 5), injury; format: in vivo; details: 30 g ai/a granule, 30 days later
Experimental: 1/5000-are Wagner pots were filled with soil. Seeds or tubers of barnyardgrass, Monochoria vaginalis, bulrush, Sagittaria pygmaea, Cyperus serroylnus and Eleocharis kuroguwai were seeded or planted under submerged condition. Two pairs of rice seedlings (2-3 leaf stage), which had been reared in advance, were transplanted to each pot and were allowed to grow in a green house. Each pair consisted of two rice seedlings. When the barnyardgrass grew to two-leaf stage, each pot was treated with a granule which had been prepared by processing a predetermined amount of the test composition in accordance with a similar method to the method described in Formulation Example 9. The state of emergence of weeds and the state of injury of rice were observed 30 days later.
In the table, the degrees of damages of the test plants and the degrees of injury of the rice are shown in a similar manner to Example 2.

narrowleaf waterplantain = experiment: Petri dish test (Test 6); format: in vivo; details: 336 h; seeds on filter paper, 25° C., 14 days; read-out: I80 (ppm)
Experimental: A filter paper was placed in each glass-made Petri dish having a diameter of 9 cm. A compound dissolved in acetone was added in a predetermined amount. The filter paper was then dried in air to remove acetone. Seeds of narrowleaf waterplantain were placed on the filter paper and 10 ml of water were poured into the Petri dish. The seeds were allowed to grow at 25° C. in a bright room. Fourteen days later, the state of growth of narrowleaf water-plantain was observed.
In the table, the degree of damages of the test plant was determined by comparing the state of growth of the plant with that of the plant in an untreated group and is shown in accordance with the following standard: […]

green foxtail = experiment: Upland foliar application test (Test 3); format: in vivo; details: 30 g ai/a, foliar spray at 2-3 leaves, 30th day
Experimental: (§1) Resin-made 1/10000-are pots were filled with the soil of an upland field. Redroot pigweed, common lambsquarters, foxtail meadow, johnsongrass, barnyardgrass, green foxtail, large crabgrass, soybean, peanut and cotton were separately seeded and were allowed to germinate in a green house. When each plant grew to the stage of 2-3 leaves, an emulsion formulated from a predetermined amount of each test compound in a similar manner to the method described in Formulation Example 11 was diluted with water to a predetermined dilution rate and then sprayed at an application rate equal to 5 l per are onto the foliage of each plant by means of a pressure-operated ULV (ultra low volume) sprayer. Influence to the crops and weeds were observed on the 30th day after the spray of the herbicides. The results are shown in Table 4 in which the degree of damages of each test plant and the degree of injury to each crop are shown in a similar manner to Test 2.

common lambsquarters = experiment: Upland foliar application test (Test 3); format: in vivo; details: 30 g ai/a, foliar spray at 2-3 leaves, 30th day
Experimental: as §1

redroot pigweed = experiment: Upland foliar application test (Test 3); format: in vivo; details: 30 g ai/a, foliar spray at 2-3 leaves, 30th day
Experimental: as §1

large crabgrass = experiment: Upland foliar application test (Test 3); format: in vivo; details: 30 g ai/a, foliar spray at 2-3 leaves, 30th day
Experimental: as §1

barnyardgrass = experiment: Upland foliar application test (Test 3); format: in vivo; details: 30 g ai/a, foliar spray at 2-3 leaves, 30th day
Experimental: as §1

johnsongrass = experiment: Upland foliar application test (Test 3); format: in vivo; details: 30 g ai/a, foliar spray at 2-3 leaves, 30th day
Experimental: as §1

foxtail meadow = experiment: Upland foliar application test (Test 3); format: in vivo; details: 30 g ai/a, foliar spray at 2-3 leaves, 30th day
Experimental: as §1

cotton = experiment: Upland foliar application test (Test 3), crop injury; format: in vivo; details: 30 g ai/a, foliar spray at 2-3 leaves, 30th day
Experimental: as §1

soybean = experiment: as above; format: in vivo; details: 30 g ai/a, foliar spray at 2-3 leaves, 30th day
Experimental: as §1

peanut = experiment: as above; format: in vivo; details: 30 g ai/a, foliar spray at 2-3 leaves, 30th day
Experimental: as §1

[1] = system: ALS (acetolactate syntase); experiment: ALS enzyme assay (Test 1); format: biochemical, barnyardgrass; details: 1,000 ppm (0.5 mg/0.5 ml)
Experimental: To determine the selectivity in enzyme level between crops and weeds, and ALS enzyme assay was conducted using pea as a representative of broadleaf crops and barnyardgrass as a representative of narrowleaf weeds.
After seeds of pea and barnyardgrass were allowed to germinate at 25° C. for 8-14 days in a dark place, partially-purified suspensions (Suspensions A) of acetolactate syntase were separately obtained from seedlings in accordance with the method described in the literature, Plant Physiology, 75, 827-831.
In a test tube, 0.5 mg of one of test compounds was weighed, followed by the addition of 0.15 ml of a 20 mM K2 HPO4 solution and 0.25 ml of a reaction substrate medium which consisted of 40 mM of K2 HPO4, 40 mM of sodium pyruvate, 1 mM of TPP, 1 mM of MgCl2 and 20 μM of FAD so that 0.4 ml of a reaction solution (Solution B) was prepared. Added to 0.4 ml of Solution B was 0.1 ml of suspension A. After the resultant mixture was shaken for 1 hour in a thermostat water bath controlled at 30° C., 50 μl of 6N sulfuric acid were added to terminate the reaction.
Next, the reaction-terminated liquid mixture was transferred into a thermostat water bath controlled at 60° C. and was heated for 15 minutes. Thereafter, 0.5 ml of a 0.5% creatine solution and 0.5 ml of a 5% alkaline α-naphthol solution were added, and the resultant mixture was maintained at 60° C. for 15 minutes. As a result, the test solution developed a pink-red color. After the above operation, the absorbance of the test solution at 525 nm was measured by a spectrophotometer (Absorbance 1 of Test Compound).
On the other hand, the absorbance (Absorbance 2 of Blank) of a solution obtained by subjecting a portion of Solution B, said portion being free of the test compound, to the above operation and the absorbance (Absorbance 3 of sulfuric acid terminated) of another solution obtained by subjecting another portion of Solution B, said portion containing 50 μl of 6N sulfuric acid as a test compound, were measured at the same time. Based on the values of the respective measurements, the enzyme assay at 1,000 ppm (0.5 mg/0.5 ml) of each compound was determined. [formula]

Inhibitory activity (%) Barnyardgrass [1]	Compound	Injury Rice (rice)	IC80 (narrowleaf waterplantain)	Herbicidal effects Green foxtail (green foxtail)	Herbicidal effects Common lambsquarters (common lambsquarters)	Herbicidal effects Redroot pigweed (redroot pigweed)	Herbicidal effects Large crabgrass (large crabgrass)	Herbicidal effects Barnyardgrass (barnyardgrass)	Herbicidal effects Johnsongrass (johnsongrass)	Herbicidal effects Foxtail meadow (foxtail meadow)	Injury Cotton (cotton)	Injury Soybean (soybean)	Injury Peanut (peanut)
35%	COc1cc(OC)nc(Oc2ccccc2C=NOCCc2ccccc2)n1 [compound 23]	0 (91-100 (No damages))	100 µg/mL (≈ 264 µM)	4 (6-10 (Severe damages))	3 (11-40 (Medium damages))	3 (11-40 (Medium damages))	3 (11-40 (Medium damages))	3 (11-40 (Medium damages))	5 (0-5 (Death))	4 (6-10 (Severe damages))	0 (91-100 (No damages))	0 (91-100 (No damages))	0 (91-100 (No damages))
15%	COc1cc(OC)nc(Oc2ccccc2C=NOCc2ccc(Cl)cc2Cl)n1 [Compound No. 17]	0 (91-100 (No damages))	100 µg/mL (≈ 230 µM)	5 (0-5 (Death))	4 (6-10 (Severe damages))	4 (6-10 (Severe damages))	3 (11-40 (Medium damages))	3 (11-40 (Medium damages))	5 (0-5 (Death))	3 (11-40 (Medium damages))	0 (91-100 (No damages))	0 (91-100 (No damages))	0 (91-100 (No damages))
91%	COc1cc(OC)nc(Oc2ccccc2C=NOCC=Cc2ccc(Cl)cc2)n1 [Compound No. 28]	0 (91-100 (No damages))	2 µg/mL (≈ 4.7 µM)	4 (6-10 (Severe damages))	4 (6-10 (Severe damages))	4 (6-10 (Severe damages))	4 (6-10 (Severe damages))	5 (0-5 (Death))	5 (0-5 (Death))	5 (0-5 (Death))	0 (91-100 (No damages))	0 (91-100 (No damages))	0 (91-100 (No damages))
89%	COc1cc(OC)nc(Oc2ccccc2C=NOCC=Cc2cccc(Cl)c2)n1 [Compound No. 26, 0-(3-chlorocinnamyl)-2-(4,6-dimethoxy-2-pyrimidinyloxy)benzaldxime]	0 (91-100 (No damages))	2 µg/mL (≈ 4.7 µM)	5 (0-5 (Death))	4 (6-10 (Severe damages))	4 (6-10 (Severe damages))	5 (0-5 (Death))	5 (0-5 (Death))	5 (0-5 (Death))	4 (6-10 (Severe damages))	0 (91-100 (No damages))	0 (91-100 (No damages))	0 (91-100 (No damages))
91%	COc1cccc(C=CCON=Cc2ccccc2Oc2nc(OC)cc(OC)n2)c1 [compound 38]	1 (71-90 (Slight damages))	2 µg/mL (≈ 4.75 µM)	5 (0-5 (Death))	4 (6-10 (Severe damages))	4 (6-10 (Severe damages))	5 (0-5 (Death))	5 (0-5 (Death))	5 (0-5 (Death))	4 (6-10 (Severe damages))	0 (91-100 (No damages))	0 (91-100 (No damages))	0 (91-100 (No damages))
93%	CCc1ccc(C=CCON=Cc2ccccc2Oc2nc(OC)cc(OC)n2)cc1 [compound 37]	1 (71-90 (Slight damages))	2 µg/mL (≈ 4.77 µM)	5 (0-5 (Death))	4 (6-10 (Severe damages))	4 (6-10 (Severe damages))	5 (0-5 (Death))	4 (6-10 (Severe damages))	5 (0-5 (Death))	5 (0-5 (Death))	0 (91-100 (No damages))	0 (91-100 (No damages))	0 (91-100 (No damages))
58%	CON=Cc1ccccc1Oc1nc(OC)cc(OC)n1 [Compound No. 1, O-methyl--2-(4,6-dimethoxy-2-pyrimidinyloxy)benzaldoxime]	0 (91-100 (No damages))	25 µg/mL (≈ 86.4 µM)	5 (0-5 (Death))	4 (6-10 (Severe damages))	5 (0-5 (Death))	3 (11-40 (Medium damages))	5 (0-5 (Death))	5 (0-5 (Death))	5 (0-5 (Death))	0 (91-100 (No damages))	0 (91-100 (No damages))	0 (91-100 (No damages))
41%	CC=CCON=Cc1ccccc1Oc1nc(OC)cc(OC)n1 [compound 8]	1 (71-90 (Slight damages))	40 µg/mL (≈ 121 µM)	5 (0-5 (Death))	4 (6-10 (Severe damages))	5 (0-5 (Death))	3 (11-40 (Medium damages))	4 (6-10 (Severe damages))	5 (0-5 (Death))	5 (0-5 (Death))	0 (91-100 (No damages))	0 (91-100 (No damages))	0 (91-100 (No damages))

From patent publication US5053070A, “Pyrimidine derivatives, preparation processes thereof, herbicide containing the same, and herbicidal compositions containing the same along with other active ingredient” (Mitsui Toatsu Chemicals, Incorporated, priority 1988, dated 1991)
